Laboratory results: the NIST ThermoML archive (doi:10.1016/j.jct.2011.08.016)

Experiment: xn = mol fraction of the nth substance listed
Settings: Liquid, Vibrating tube method

CCCCCCCCCC [decane] + CCCCCCC
Settings	mass density [kg/m3]
313.18 K, 10000 kPa, x2 = 0.5219	703.05
313.18 K, 10000 kPa, x2 = 0.777	690.24
313.18 K, 10990 kPa, x2 = 0.5219	703.9
313.18 K, 10990 kPa, x2 = 0.777	691.12
313.18 K, 12000 kPa, x2 = 0.5219	704.76
313.18 K, 12000 kPa, x2 = 0.777	692.05
313.18 K, 13000 kPa, x2 = 0.5219	705.6
313.18 K, 13000 kPa, x2 = 0.777	692.92
313.18 K, 14000 kPa, x2 = 0.5219	706.44
313.18 K, 14000 kPa, x2 = 0.777	693.78
313.18 K, 15000 kPa, x2 = 0.5219	707.25
313.18 K, 15000 kPa, x2 = 0.777	694.64
313.18 K, 16000 kPa, x2 = 0.5219	708.05
313.18 K, 16000 kPa, x2 = 0.777	695.5
313.18 K, 17000 kPa, x2 = 0.5219	708.84
313.18 K, 17000 kPa, x2 = 0.777	696.33
313.18 K, 18000 kPa, x2 = 0.5219	709.64
313.18 K, 18000 kPa, x2 = 0.777	697.16
313.18 K, 19000 kPa, x2 = 0.5219	710.37
313.18 K, 19000 kPa, x2 = 0.777	697.97
313.18 K, 20000 kPa, x2 = 0.5219	711.12
313.18 K, 20000 kPa, x2 = 0.777	698.77
313.18 K, 21000 kPa, x2 = 0.5219	711.85
313.18 K, 21000 kPa, x2 = 0.777	699.55
313.18 K, 22000 kPa, x2 = 0.5219	712.53
313.18 K, 22000 kPa, x2 = 0.777	700.31
313.18 K, 23000 kPa, x2 = 0.5219	713.24
313.18 K, 23000 kPa, x2 = 0.777	701
313.18 K, 24000 kPa, x2 = 0.5219	713.92
313.18 K, 24000 kPa, x2 = 0.777	701.71
313.18 K, 25000 kPa, x2 = 0.5219	714.55
313.18 K, 25000 kPa, x2 = 0.777	702.37
323.14 K, 1000 kPa, x2 = 0.5219	687.21
323.14 K, 1000 kPa, x2 = 0.952	662.62
323.14 K, 2000 kPa, x2 = 0.5219	688.12
323.14 K, 2000 kPa, x2 = 0.952	663.72
323.14 K, 3000 kPa, x2 = 0.5219	689.02
323.14 K, 3000 kPa, x2 = 0.952	664.82
323.14 K, 4000 kPa, x2 = 0.5219	689.95
323.14 K, 4000 kPa, x2 = 0.952	665.9
323.14 K, 5000 kPa, x2 = 0.5219	690.88
323.14 K, 5000 kPa, x2 = 0.952	666.98
323.14 K, 6000 kPa, x2 = 0.5219	691.82
323.14 K, 6000 kPa, x2 = 0.952	668.05
323.14 K, 7000 kPa, x2 = 0.5219	692.78
323.14 K, 7000 kPa, x2 = 0.952	669.1
323.14 K, 8000 kPa, x2 = 0.5219	693.71
323.14 K, 8000 kPa, x2 = 0.952	670.14
323.14 K, 9000 kPa, x2 = 0.5219	694.65
323.14 K, 9000 kPa, x2 = 0.952	671.16
323.14 K, 10000 kPa, x2 = 0.5219	695.58
323.14 K, 10000 kPa, x2 = 0.952	672.17
323.14 K, 10990 kPa, x2 = 0.5219	696.5
323.14 K, 10990 kPa, x2 = 0.952	673.16
323.14 K, 12000 kPa, x2 = 0.5219	697.4
323.14 K, 12000 kPa, x2 = 0.952	674.14
323.14 K, 13000 kPa, x2 = 0.5219	698.29
323.14 K, 13000 kPa, x2 = 0.952	675.1
323.14 K, 14000 kPa, x2 = 0.5219	699.17
323.14 K, 14000 kPa, x2 = 0.952	676.05
323.14 K, 15000 kPa, x2 = 0.5219	700.04
323.14 K, 15000 kPa, x2 = 0.952	676.99
323.14 K, 16000 kPa, x2 = 0.5219	700.9
323.14 K, 16000 kPa, x2 = 0.952	677.91
323.14 K, 17000 kPa, x2 = 0.5219	701.74
323.14 K, 17000 kPa, x2 = 0.952	678.82
323.14 K, 18000 kPa, x2 = 0.5219	702.6
323.14 K, 18000 kPa, x2 = 0.952	679.71
323.14 K, 19000 kPa, x2 = 0.5219	703.38
323.14 K, 19000 kPa, x2 = 0.952	680.59
323.14 K, 20000 kPa, x2 = 0.5219	704.18
323.14 K, 20000 kPa, x2 = 0.952	681.45
323.14 K, 21000 kPa, x2 = 0.5219	704.97
323.14 K, 21000 kPa, x2 = 0.952	682.3
323.14 K, 22000 kPa, x2 = 0.5219	705.7
323.14 K, 22000 kPa, x2 = 0.952	683.13
323.14 K, 23000 kPa, x2 = 0.5219	706.43
323.14 K, 23000 kPa, x2 = 0.952	683.92
323.14 K, 24000 kPa, x2 = 0.5219	707.14
323.14 K, 24000 kPa, x2 = 0.952	684.73
323.14 K, 25000 kPa, x2 = 0.5219	707.83
323.14 K, 25000 kPa, x2 = 0.952	685.51
323.15 K, 1000 kPa, x2 = 0.0531	705.96
323.15 K, 1000 kPa, x2 = 0.2594	698.56
323.15 K, 2000 kPa, x2 = 0.0531	706.92
323.15 K, 2000 kPa, x2 = 0.2594	699.45
323.15 K, 3000 kPa, x2 = 0.0531	707.86
323.15 K, 3000 kPa, x2 = 0.2594	700.3
323.15 K, 4000 kPa, x2 = 0.0531	708.79
323.15 K, 4000 kPa, x2 = 0.2594	701.18
323.15 K, 5000 kPa, x2 = 0.0531	709.69
323.15 K, 5000 kPa, x2 = 0.2594	702.06
323.15 K, 6000 kPa, x2 = 0.0531	710.58
323.15 K, 6000 kPa, x2 = 0.2594	702.96
